Assay results published in PubChem BioAssay (NCI).
Where “and” joins values, the source holds several entries; their conditions need not be identical. Identical values can stand only once.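 Growth conditions: 96-well plates. Treatment: test compound, 48 hours, 5 concentrations. Analysis: linear interpolation between bracketing concentrations; unreached endpoints set to highest concentration. The concentration for 50% growth inhibition is given as GI50. The concentration for full growth arrest is given as TGI.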 Where a SMILES comes first, the peptide text is derived from it. The star is where a group is joined. Boc = CC(C)(C)OC(=O)*; OBn = c1ccc(CO*)cc1

Key:
Test in all cases: NCI-60 cell line screen, 48 h; in the data active means GI50 below about 0.43 µM; inactive means the rest
NCI-H522 lung = test system: NCI-H522 lung
TK-10 renal = test system: TK-10 renal
UO-31 renal = test system: UO-31 renal
NCI/ADR-RES ovarian = test system: NCI/ADR-RES ovarian
MDA-N = test system: MDA-N
SF-539 CNS = test system: SF-539 CNS
HL-60(TB) leukemia = test system: HL-60(TB) leukemia
SN12C renal = test system: SN12C renal
HCT-116 colon = test system: HCT-116 colon
HS 578T breast = test system: HS 578T breast
DU-145 prostate = test system: DU-145 prostate
SF-295 CNS = test system: SF-295 CNS
NCI-H226 lung = test system: NCI-H226 lung
OVCAR-4 ovarian = test system: OVCAR-4 ovarian
K-562 leukemia = test system: K-562 leukemia
MALME-3M melanoma = test system: MALME-3M melanoma
KM12 colon = test system: KM12 colon
U251 CNS = test system: U251 CNS
OVCAR-3 ovarian = test system: OVCAR-3 ovarian
HOP-62 NSCLC = test system: HOP-62 NSCLC
HOP-92 NSCLC = test system: HOP-92 NSCLC
A498 renal = test system: A498 renal
IGROV1 ovarian = test system: IGROV1 ovarian
SR leukemia = test system: SR leukemia
SK-MEL-28 melanoma = test system: SK-MEL-28 melanoma
HCT-15 colon = test system: HCT-15 colon
MOLT-4 leukemia = test system: MOLT-4 leukemia
OVCAR-5 ovarian = test system: OVCAR-5 ovarian
COLO 205 colon = test system: COLO 205 colon
MDA-MB-231 breast = test system: MDA-MB-231 breast
PC-3 prostate = test system: PC-3 prostate
SF-268 CNS = test system: SF-268 CNS
A549 NSCLC = test system: A549 NSCLC
M14 melanoma = test system: M14 melanoma
HT29 colon = test system: HT29 colon
RPMI-8226 leukemia = test system: RPMI-8226 leukemia
EKVX NSCLC = test system: EKVX NSCLC
MDA-MB-435 = test system: MDA-MB-435
SW-620 colon = test system: SW-620 colon
RXF 393 renal = test system: RXF 393 renal
CAKI-1 renal = test system: CAKI-1 renal
ACHN renal = test system: ACHN renal
SK-MEL-5 melanoma = test system: SK-MEL-5 melanoma
SK-MEL-2 melanoma = test system: SK-MEL-2 melanoma
LOX IMVI melanoma = test system: LOX IMVI melanoma
SK-OV-3 ovarian = test system: SK-OV-3 ovarian
UACC-257 melanoma = test system: UACC-257 melanoma
MCF7 breast = test system: MCF7 breast
NCI-H460 lung = test system: NCI-H460 lung
SNB-19 CNS = test system: SNB-19 CNS
HCC-2998 colon = test system: HCC-2998 colon
UACC-62 melanoma = test system: UACC-62 melanoma
T-47D breast = test system: T-47D breast
NCI-H23 lung = test system: NCI-H23 lung
786-0 renal = test system: 786-0 renal
SNB-75 CNS = test system: SNB-75 CNS
OVCAR-8 ovarian = test system: OVCAR-8 ovarian
CCRF-CEM leukemia = test system: CCRF-CEM leukemia

CC1C(=O)CC[C@@]2(C)C(=O)CCCC12O (some centres undefined)
> 100 µM: TGI (NCI-H522 lung) | TGI (TK-10 renal) | TGI (UO-31 renal) | TGI (NCI/ADR-RES ovarian) | TGI (MDA-N) | TGI (SF-539 CNS) | TGI (HL-60(TB) leukemia) | TGI (SN12C renal) | TGI (HCT-116 colon) | TGI (HS 578T breast) | TGI (DU-145 prostate) | TGI (SF-295 CNS) | TGI (NCI-H226 lung) | TGI (OVCAR-4 ovarian) | TGI (K-562 leukemia) | TGI (MALME-3M melanoma) | TGI (KM12 colon) | TGI (U251 CNS) | TGI (OVCAR-3 ovarian) | TGI (HOP-62 NSCLC) | TGI (HOP-92 NSCLC) | TGI (A498 renal) | TGI (IGROV1 ovarian) | TGI (SR leukemia) | TGI (SK-MEL-28 melanoma) | TGI (HCT-15 colon) | TGI (MOLT-4 leukemia) | TGI (OVCAR-5 ovarian) | TGI (COLO 205 colon) | TGI (MDA-MB-231 breast) | TGI (PC-3 prostate) | TGI (SF-268 CNS) | TGI (A549 NSCLC) | TGI (M14 melanoma) | TGI (HT29 colon) | TGI (RPMI-8226 leukemia) | TGI (EKVX NSCLC) | TGI (MDA-MB-435) | TGI (SW-620 colon) | TGI (RXF 393 renal) | TGI (CAKI-1 renal) | TGI (ACHN renal) | TGI (SK-MEL-5 melanoma) | TGI (SK-MEL-2 melanoma) | TGI (LOX IMVI melanoma) | TGI (SK-OV-3 ovarian) | TGI (UACC-257 melanoma) | TGI (MCF7 breast) | TGI (NCI-H460 lung) | TGI (SNB-19 CNS) | TGI (HCC-2998 colon) | TGI (UACC-62 melanoma) | TGI (T-47D breast) | TGI (NCI-H23 lung) | TGI (786-0 renal)

CC(C)C(NC(=O)CNC(=O)C1CCCN1C(=O)C(NC(=O)OC(C)(C)C)C(C)C)C(=O)NCC(=O)OCc1ccccc1 (centres undefined) (Boc-VPGVG-OBn; configuration not given here)
> 100 µM: TGI (NCI-H522 lung) | TGI (TK-10 renal) | TGI (UO-31 renal) | TGI (NCI/ADR-RES ovarian) | TGI (MDA-N) | TGI (SF-539 CNS) | TGI (HL-60(TB) leukemia) | TGI (SN12C renal) | TGI (HCT-116 colon) | TGI (HS 578T breast) | TGI (DU-145 prostate) | TGI (SF-295 CNS) | TGI (NCI-H226 lung) | TGI (SNB-75 CNS) | TGI (OVCAR-4 ovarian) | TGI (K-562 leukemia) | TGI (MALME-3M melanoma) | TGI (OVCAR-8 ovarian) | TGI (KM12 colon) | TGI (U251 CNS) | TGI (OVCAR-3 ovarian) | TGI (HOP-62 NSCLC) | TGI (HOP-92 NSCLC) | TGI (A498 renal) | TGI (IGROV1 ovarian) | TGI (SR leukemia) | TGI (SK-MEL-28 melanoma) | TGI (CCRF-CEM leukemia) | TGI (HCT-15 colon) | TGI (MOLT-4 leukemia) | TGI (OVCAR-5 ovarian) | TGI (COLO 205 colon) | TGI (MDA-MB-231 breast) | TGI (PC-3 prostate) | TGI (SF-268 CNS) | TGI (A549 NSCLC) | TGI (M14 melanoma) | TGI (HT29 colon) | TGI (RPMI-8226 leukemia) | TGI (EKVX NSCLC) | TGI (MDA-MB-435) | TGI (SW-620 colon) | TGI (RXF 393 renal) | TGI (CAKI-1 renal) | TGI (ACHN renal) | TGI (SK-MEL-5 melanoma) | TGI (SK-MEL-2 melanoma) | TGI (LOX IMVI melanoma) | TGI (SK-OV-3 ovarian) | TGI (UACC-257 melanoma) | TGI (MCF7 breast) | TGI (NCI-H460 lung) | TGI (SNB-19 CNS) | TGI (HCC-2998 colon) | TGI (UACC-62 melanoma) | TGI (T-47D breast) | TGI (NCI-H23 lung) | TGI (786-0 renal)
inactive: GI50 (SNB-75 CNS) 35.3 µM and > 100 µM
